Measurements as given in the NIST ThermoML archive (doi:10.1021/je200327s).
± gives the expanded uncertainty stated by the source. Each block holds one compound with its values, some of them ahead of it.

Assays:
[1] = 101.3 kPa, Liquid, Vibrating tube method
[2] = xn = mol fraction of the nth substance listed; conditions: 101 kPa, Liquid, Vibrating tube method

mass density ([1]; 298.2 K): 713.938 ± 0.36 kg/m3
Structure (SMILES): CCCCCCCCC [nonane]

mass density ([1]; 298.2 K): 687.721 ± 0.28 kg/m3 | mass density ([1]; 313.2 K): 675.225 ± 0.29 kg/m3
Structure (SMILES): CC(C)CC(C)(C)C [2,2,4-trimethylpentane]

mass density ([1]; 298.2 K): 679.857 ± 0.36 kg/m3
Structure (SMILES): CCCCCCC [heptane]

mass density ([1]; 298.2 K): 736.786 ± 0.34 kg/m3 | mass density ([1]; 313.2 K): 725.693 ± 0.35 kg/m3
Structure (SMILES): CCCCCCCCCCC [undecane]

mass density ([1]; 298.2 K): 698.569 ± 1.4 kg/m3 | mass density ([1]; 313.2 K): 686.365 ± 1.3 kg/m3
Structure (SMILES): CCCCCCCC [octane]

Structure (SMILES): c1ccc2c(c1)sc1ccccc12 [dibenzothiophene] + CCCCCCCCC
mass density ([2]; 298.2 K, x1 = 0.0032): 715.374 ± 0.35 kg/m3 | mass density ([2]; 298.2 K, x1 = 0.0057): 716.447 ± 0.35 kg/m3 | mass density ([2]; 298.2 K, x1 = 0.0072): 717.097 ± 0.35 kg/m3 | mass density ([2]; 298.2 K, x1 = 0.0147): 720.427 ± 0.35 kg/m3 | mass density ([2]; 298.2 K, x1 = 0.0216): 723.475 ± 0.35 kg/m3 | mass density ([2]; 298.2 K, x1 = 0.0287): 726.668 ± 0.35 kg/m3 | mass density ([2]; 298.2 K, x1 = 0.0343): 729.068 ± 0.36 kg/m3 | mass density ([2]; 313.2 K, x1 = 0.0032): 703.613 ± 0.35 kg/m3 | mass density ([2]; 313.2 K, x1 = 0.0057): 704.689 ± 0.35 kg/m3 | mass density ([2]; 313.2 K, x1 = 0.0072): 705.41 ± 0.35 kg/m3 | mass density ([2]; 313.2 K, x1 = 0.0147): 708.85 ± 0.35 kg/m3 | mass density ([2]; 313.2 K, x1 = 0.0216): 711.795 ± 0.36 kg/m3 | mass density ([2]; 313.2 K, x1 = 0.0287): 715.175 ± 0.36 kg/m3 | mass density ([2]; 313.2 K, x1 = 0.0343): 717.135 ± 0.36 kg/m3

mass density ([1]; 298.2 K): 773.849 ± 0.27 kg/m3
Structure (SMILES): C1CCCCC1 [cyclohexane]

mass density ([1]; 298.2 K): 726.1 ± 0.4 kg/m3 | mass density ([1]; 313.2 K): 714.726 ± 0.35 kg/m3
Structure (SMILES): CCCCCCCCCC [decane]

Structure (SMILES): c1ccc2c(c1)sc1ccccc12 [dibenzothiophene] + CCCCCCCC
mass density ([2]; 298.2 K, x1 = 0.0026): 699.866 ± 1.4 kg/m3 | mass density ([2]; 298.2 K, x1 = 0.0049): 701.048 ± 1.4 kg/m3 | mass density ([2]; 298.2 K, x1 = 0.0063): 701.696 ± 1.4 kg/m3 | mass density ([2]; 298.2 K, x1 = 0.0127): 704.954 ± 1.4 kg/m3 | mass density ([2]; 298.2 K, x1 = 0.0187): 707.967 ± 1.4 kg/m3 | mass density ([2]; 298.2 K, x1 = 0.0252): 711.182 ± 1.4 kg/m3 | mass density ([2]; 313.2 K, x1 = 0.0026): 687.657 ± 1.3 kg/m3 | mass density ([2]; 313.2 K, x1 = 0.0049): 688.882 ± 1.3 kg/m3 | mass density ([2]; 313.2 K, x1 = 0.0063): 689.525 ± 1.3 kg/m3 | mass density ([2]; 313.2 K, x1 = 0.0127): 692.813 ± 1.3 kg/m3 | mass density ([2]; 313.2 K, x1 = 0.0187): 695.851 ± 1.3 kg/m3 | mass density ([2]; 313.2 K, x1 = 0.0252): 699.1 ± 1.4 kg/m3

mass density ([1]; 298.2 K): 624.932 ± 0.3 kg/m3
Structure (SMILES): CCCCC [pentane]

Structure (SMILES): Cc1cccc2c1sc1ccccc12 [4-methyldibenzothiophene] + CCCCCCCCCCCC
mass density ([2]; 298.2 K, x1 = 0.0062): 747.197 ± 0.24 kg/m3 | mass density ([2]; 298.2 K, x1 = 0.012): 749.098 ± 0.24 kg/m3 | mass density ([2]; 298.2 K, x1 = 0.018): 751.069 ± 0.24 kg/m3 | mass density ([2]; 298.2 K, x1 = 0.0242): 753.104 ± 0.25 kg/m3 | mass density ([2]; 298.2 K, x1 = 0.0302): 755.131 ± 0.25 kg/m3 | mass density ([2]; 298.2 K, x1 = 0.0526): 762.606 ± 0.26 kg/m3 | mass density ([2]; 298.2 K, x1 = 0.0863): 774.082 ± 0.28 kg/m3 | mass density ([2]; 298.2 K, x1 = 0.133): 790.24 ± 0.32 kg/m3 | mass density ([2]; 313.2 K, x1 = 0.0062): 736.26 ± 0.25 kg/m3 | mass density ([2]; 313.2 K, x1 = 0.012): 738.169 ± 0.25 kg/m3 | mass density ([2]; 313.2 K, x1 = 0.018): 740.129 ± 0.25 kg/m3 | mass density ([2]; 313.2 K, x1 = 0.0242): 742.156 ± 0.25 kg/m3 | mass density ([2]; 313.2 K, x1 = 0.0302): 744.204 ± 0.25 kg/m3 | mass density ([2]; 313.2 K, x1 = 0.0526): 751.621 ± 0.26 kg/m3 | mass density ([2]; 313.2 K, x1 = 0.0863): 763.057 ± 0.28 kg/m3 | mass density ([2]; 313.2 K, x1 = 0.133): 777.581 ± 0.32 kg/m3 | mass density ([2]; 313.2 K, x1 = 0.2685): 827.245 ± 0.51 kg/m3

mass density ([1]; 298.2 K): 655.039 ± 2.1 kg/m3
Structure (SMILES): CCCCCC [hexane]

mass density ([1]; 298.2 K): 745.15 ± 0.24 kg/m3 | mass density ([1]; 313.2 K): 734.325 ± 0.24 kg/m3
Structure (SMILES): CCCCCCCCCCCC [dodecane]

Structure (SMILES): c1ccc2c(c1)sc1ccccc12 [dibenzothiophene] + CC(C)CC(C)(C)C
mass density ([2]; 298.2 K, x1 = 0.0025): 689.019 ± 0.28 kg/m3 | mass density ([2]; 298.2 K, x1 = 0.005): 690.292 ± 0.28 kg/m3 | mass density ([2]; 298.2 K, x1 = 0.0127): 694.21 ± 0.28 kg/m3 | mass density ([2]; 298.2 K, x1 = 0.0149): 695.329 ± 0.28 kg/m3 | mass density ([2]; 313.2 K, x1 = 0.0025): 676.548 ± 0.29 kg/m3 | mass density ([2]; 313.2 K, x1 = 0.003): 676.845 ± 0.29 kg/m3 | mass density ([2]; 313.2 K, x1 = 0.005): 677.841 ± 0.29 kg/m3 | mass density ([2]; 313.2 K, x1 = 0.0063): 678.505 ± 0.29 kg/m3 | mass density ([2]; 313.2 K, x1 = 0.0149): 683.13 ± 0.28 kg/m3

Structure (SMILES): c1ccc2c(c1)sc1ccccc12 [dibenzothiophene] + C1CCCCC1
mass density ([2]; 298.2 K, x1 = 0.0025): 775.392 ± 0.27 kg/m3 | mass density ([2]; 298.2 K, x1 = 0.0045): 776.667 ± 0.27 kg/m3 | mass density ([2]; 298.2 K, x1 = 0.0114): 780.726 ± 0.27 kg/m3 | mass density ([2]; 298.2 K, x1 = 0.0224): 787.439 ± 0.27 kg/m3
